{"source": "patent US11338007B2", "about": "“Combination formulation of three antiviral compounds” (priority 2016, dated 2022)", "key": {"[1]": {"test": "Stress studies: stability of tablets made with stressed VEL SSD/VOX SSD (water, residual solvent, peroxide, reprocessing, potency; Tables 16-21)", "format": "physicochemical", "conditions": "for total impurities/degradation products: all conditions", "method": "The impact of the following stressors on the physical and chemical stability of the sofosbuvir/velpatasvir SSD/voxilaprevir SSD tablets were evaluated:\n(i) Voxilaprevir SSD and velpatasvir SSD, and sofosbuvir/velpatasvir SSD/voxilaprevir SSD tablet water content;\n(ii) Copovidone peroxide content in velpatasvir SSD and in voxilaprevir SSD (iii) Reprocessed velpatasvir SSD and voxilaprevir SSD;\n(iv) Voxilaprevir SSD and velpatasvir SSD potency (varying the ratio of velpatasvir or voxilaprevir to copovidone); and\n(v) Seeding sofosbuvir/velpatasvir SSD/voxilaprevir SSD tablets with crystalline voxilaprevir Form VIII and Form X drug substances."}, "[2]": {"test": "Tablet dissolution, 50 mM sodium acetate buffer pH 5.0 with 2.0% w/v Polysorbate 80, USP Type II, 75 rpm", "format": "physicochemical", "method": "FIGS. 10-12 depict additional dissolution profiles for the sofosbuvir/velpatasvir SSD/voxilaprevir SSD tablets having the formulation described in Table 13 and which were used in phase 1, 2, and 3 clinical studies, where the dissolution testing was conducted at pH 5.0 acetate buffer containing 2.0% w/v polysorbate 80. Four batches of the sofosbuvir/velpatasvir SSD/voxilaprevir SSD tablets were tested, with Batch A manufactured at 100 kg and Batches B, C and D manufactured at 145 kg. All other aspects of the formulation and manufacturing process were otherwise equivalent. […] Moreover, for Batch A, the amount dissolved at 30 min remained between 98 and 100% for sofosbuvir, between 90 and 92% for velpatasvir SSD, and between 89 and 93% for voxilaprevir SSD. […] For Batch D, the amount dissolved at 30 min remained at 100% for sofosbuvir, between 90 and 91% for velpatasvir SSD, and between 89 and 91% for voxilaprevir SSD. Release of velpatasvir SSD and voxilaprevir SSD from the sofosbuvir/velpatasvir SSD/voxilaprevir SSD tablets associated with all four Batches was complete after 60 minutes."}, "[3]": {"conditions": "tablets from SSDs with copovidone peroxides 544 ppm (VEL SSD), 655 ppm (VOX SSD), closed, 1 g desiccant, 40° C./75% RH, 12 weeks"}, "[4]": {"conditions": "tablets from SSDs with copovidone peroxides 544 ppm (VEL SSD), 655 ppm (VOX SSD), open, no desiccant, 40° C./75% RH, 4 weeks"}, "[5]": {"conditions": "tablets from VEL SSD 6.0% residual ethanol, VOX SSD 2.1% residual acetone, Initial, time 0"}, "[6]": {"conditions": "tablets from VEL SSD 6.0% residual ethanol, VOX SSD 2.1% residual acetone, closed, 1 g desiccant, 25° C./60% RH, 12 weeks"}, "[7]": {"conditions": "tablets from VEL SSD 6.0% residual ethanol, VOX SSD 2.1% residual acetone, closed, 1 g desiccant, 40° C./75% RH, 4 weeks"}, "[8]": {"conditions": "tablets from VEL SSD 6.0% residual ethanol, VOX SSD 2.1% residual acetone, closed, 1 g desiccant, 40° C./75% RH, 12 weeks"}, "[9]": {"conditions": "tablets from VEL SSD 6.0% residual ethanol, VOX SSD 2.1% residual acetone, open, no desiccant, 40° C./75% RH, 4 weeks"}, "[10]": {"conditions": "tablets from VEL SSD 7.0% water, VOX SSD 3.2% water, Initial, time 0"}, "[11]": {"conditions": "tablets from VEL SSD 7.0% water, VOX SSD 3.2% water, closed, 1 g desiccant, 25° C./60% RH, 12 weeks"}, "[12]": {"conditions": "tablets from VEL SSD 7.0% water, VOX SSD 3.2% water, closed, 1 g desiccant, 40° C./75% RH, 4 weeks"}, "[13]": {"conditions": "tablets from VEL SSD 7.0% water, VOX SSD 3.2% water, closed, 1 g desiccant, 40° C./75% RH, 12 weeks"}, "[14]": {"conditions": "tablets from twice reprocessed VEL SSD and VOX SSD, Initial, time 0"}, "[15]": {"conditions": "tablets from twice reprocessed VEL SSD and VOX SSD, closed, 1 g desiccant, 25° C./60% RH, 12 weeks"}, "[16]": {"conditions": "tablets from twice reprocessed VEL SSD and VOX SSD, closed, 1 g desiccant, 40° C./75% RH, 4 weeks"}, "[17]": {"conditions": "tablets from twice reprocessed VEL SSD and VOX SSD, closed, 1 g desiccant, 40° C./75% RH, 12 weeks"}, "[18]": {"conditions": "tablets from twice reprocessed VEL SSD and VOX SSD, open, no desiccant, 40° C./75% RH, 4 weeks"}}}
{"smiles": "CC(C)OC(=O)C(C)N[P@](=O)(OC[C@H]1O[C@@H](n2ccc(=O)[nH]c2=O)[C@](C)(F)[C@@H]1O)Oc1ccccc1", "note": "(stereo in doubt) [sofosbuvir, (S)-isopropyl 2-(((S)-(((2R,3R,4R,5R)-5-(2,4-dioxo-3,4-dihydropyrimidin-1(2H)-yl)-4-fluoro-3-hydroxy-4-methyltetrahydrofuran-2-yl)methoxy)(phenoxy)phosphoryl)amino)propanoate]", "values": [{"measurement": "LS (%)", "setting": "[1]; [3]", "result": 98.9, "unit": "%"}, {"measurement": "Total Imp./Deg. (%)", "setting": "[1]; [3]", "result": 0.0, "unit": "%"}, {"measurement": "LS (%)", "setting": "[1]; [4]", "result": 100.3, "unit": "%"}, {"measurement": "Total Imp./Deg. (%)", "setting": "[1]; [4]", "result": 0.0, "unit": "%"}, {"measurement": "total impurities/degradation products", "setting": "[1]; tablets from VEL SSD 6.0% residual ethanol and VOX SSD 2.1% residual acetone", "result": 0.0, "unit": "%"}, {"measurement": "LS (%)", "setting": "[1]; [5]", "result": 101.2, "unit": "%"}, {"measurement": "Total Imp./Deg. (%)", "setting": "[1]; [5]", "result": 0.0, "unit": "%"}, {"measurement": "LS (%)", "setting": "[1]; [6]", "result": 100.5, "unit": "%"}, {"measurement": "Total Imp./Deg. (%)", "setting": "[1]; [6]", "result": 0.0, "unit": "%"}, {"measurement": "LS (%)", "setting": "[1]; [7]", "result": 101.5, "unit": "%"}, {"measurement": "Total Imp./Deg. (%)", "setting": "[1]; [7]", "result": 0.0, "unit": "%"}, {"measurement": "LS (%)", "setting": "[1]; [8]", "result": 100.9, "unit": "%"}, {"measurement": "Total Imp./Deg. (%)", "setting": "[1]; [8]", "result": 0.0, "unit": "%"}, {"measurement": "LS (%)", "setting": "[1]; [9]", "result": 100.9, "unit": "%"}, {"measurement": "Total Imp./Deg. (%)", "setting": "[1]; [9]", "result": 0.0, "unit": "%"}, {"measurement": "total impurities/degradation products", "setting": "[1]; tablets from VEL SSD 7.0% and VOX SSD 3.2% water content", "result": 0.0, "unit": "%"}, {"measurement": "LS (%)", "setting": "[1]; [10]", "result": 100.5, "unit": "%"}, {"measurement": "Total Imp./Deg. (%)", "setting": "[1]; [10]", "result": 0.0, "unit": "%"}, {"measurement": "LS (%)", "setting": "[1]; [11]", "result": 99.9, "unit": "%"}, {"measurement": "Total Imp./Deg. (%)", "setting": "[1]; [11]", "result": 0.0, "unit": "%"}, {"measurement": "LS (%)", "setting": "[1]; [12]", "result": 101.6, "unit": "%"}, {"measurement": "Total Imp./Deg. (%)", "setting": "[1]; [12]", "result": 0.0, "unit": "%"}, {"measurement": "LS (%)", "setting": "[1]; [13]", "result": 100.4, "unit": "%"}, {"measurement": "Total Imp./Deg. (%)", "setting": "[1]; [13]", "result": 0.0, "unit": "%"}, {"measurement": "LS (%)", "setting": "[1]; [14]", "result": 100.7, "unit": "%"}, {"measurement": "Total Imp./Deg. (%)", "setting": "[1]; [14]", "result": 0.0, "unit": "%"}, {"measurement": "total impurities/degradation products", "setting": "[1]; tablets from twice reprocessed VEL SSD and VOX SSD", "result": 0.0, "unit": "%"}, {"measurement": "LS (%)", "setting": "[1]; [15]", "result": 99.9, "unit": "%"}, {"measurement": "Total Imp./Deg. (%)", "setting": "[1]; [15]", "result": 0.0, "unit": "%"}, {"measurement": "LS (%)", "setting": "[1]; [16]", "result": 100.3, "unit": "%"}, {"measurement": "Total Imp./Deg. (%)", "setting": "[1]; [16]", "result": 0.0, "unit": "%"}, {"measurement": "LS (%)", "setting": "[1]; [17]", "result": 99.1, "unit": "%"}, {"measurement": "Total Imp./Deg. (%)", "setting": "[1]; [17]", "result": 0.0, "unit": "%"}, {"measurement": "LS (%)", "setting": "[1]; [18]", "result": 96.4, "unit": "%"}, {"measurement": "Total Imp./Deg. (%)", "setting": "[1]; [18]", "result": 0.0, "unit": "%"}, {"measurement": "Dissolved at 30 min", "setting": "[2]; Batch A, 25° C./60% RH, 3 months", "result": 98, "unit": "%"}, {"measurement": "Dissolved at 30 min", "setting": "[2]; Batch A, 25° C./60% RH, 6 months", "result": 98, "unit": "%"}, {"measurement": "Dissolved at 30 min", "setting": "[2]; Batch A, 30° C./75% RH, 3 months", "result": 98, "unit": "%"}, {"measurement": "Dissolved at 30 min", "setting": "[2]; Batch A, 30° C./75% RH, 6 months", "result": 100, "unit": "%"}, {"measurement": "Dissolved at 30 min", "setting": "[2]; Batch A, 40° C./75% RH, 1 month", "result": 98, "unit": "%"}, {"measurement": "Dissolved at 30 min", "setting": "[2]; Batch A, 40° C./75% RH, 3 months", "result": 99, "unit": "%"}, {"measurement": "Dissolved at 30 min", "setting": "[2]; Batch A, 40° C./75% RH, 6 months", "result": 100, "unit": "%"}, {"measurement": "Dissolved at 30 min", "setting": "[2]; Batch A, Initial", "result": 98, "unit": "%"}, {"measurement": "Dissolved at 30 min", "setting": "[2]; Batch B, 25° C./60% RH, 3 months", "result": 99, "unit": "%"}, {"measurement": "Dissolved at 30 min", "setting": "[2]; Batch B, 25° C./60% RH, 6 months", "result": 99, "unit": "%"}, {"measurement": "Dissolved at 30 min", "setting": "[2]; Batch B, 30° C./75% RH, 3 months", "result": 99, "unit": "%"}, {"measurement": "Dissolved at 30 min", "setting": "[2]; Batch B, 30° C./75% RH, 6 months", "result": 99, "unit": "%"}, {"measurement": "Dissolved at 30 min", "setting": "[2]; Batch B, 40° C./75% RH, 1 month", "result": 100, "unit": "%"}, {"measurement": "Dissolved at 30 min", "setting": "[2]; Batch B, 40° C./75% RH, 3 months", "result": 100, "unit": "%"}, {"measurement": "Dissolved at 30 min", "setting": "[2]; Batch B, 40° C./75% RH, 6 months", "result": 98, "unit": "%"}, {"measurement": "Dissolved at 30 min", "setting": "[2]; Batch B, Initial", "result": 99, "unit": "%"}, {"measurement": "amount dissolved at 30 min", "setting": "[2]; Batch D", "result": 100, "unit": "%"}, {"measurement": "Dissolved at 30 min", "setting": "[2]; Batch D, 40° C./75% RH, 1 month", "result": 100, "unit": "%"}, {"measurement": "Dissolved at 30 min", "setting": "[2]; Batch D, Initial", "result": 100, "unit": "%"}, {"measurement": "dissolution at 30 minutes", "setting": "[2]; potency study Lot B, after 4 weeks open at 40° C./75% RH", "result": 100, "unit": "%"}, {"measurement": "release at 30 minutes", "setting": "[2]; tablet Lots A and B with different sofosbuvir particle size", "result": 101, "unit": "%"}, {"measurement": "Dissolved at 30 min (%)", "setting": "[2]; tablets Batch C, 1 g desiccant, 25° C./60% RH, 3 months", "result": 101, "unit": "%"}, {"measurement": "Dissolved at 30 min (%)", "setting": "[2]; tablets Batch C, 1 g desiccant, 25° C./60% RH, 6 months", "result": 99, "unit": "%"}, {"measurement": "Dissolved at 30 min (%)", "setting": "[2]; tablets Batch C, 1 g desiccant, 30° C./75% RH, 3 months", "result": 99, "unit": "%"}, {"measurement": "Dissolved at 30 min (%)", "setting": "[2]; tablets Batch C, 1 g desiccant, 30° C./75% RH, 6 months", "result": 99, "unit": "%"}, {"measurement": "Dissolved at 30 min (%)", "setting": "[2]; tablets Batch C, 1 g desiccant, 40° C./75% RH, 1 month", "result": 100, "unit": "%"}, {"measurement": "Dissolved at 30 min (%)", "setting": "[2]; tablets Batch C, 1 g desiccant, 40° C./75% RH, 3 months", "result": 100, "unit": "%"}, {"measurement": "Dissolved at 30 min (%)", "setting": "[2]; tablets Batch C, 1 g desiccant, 40° C./75% RH, 6 months", "result": 99, "unit": "%"}, {"measurement": "Dissolved at 30 min (%)", "setting": "[2]; tablets Batch C, 1 g desiccant, Initial, time 0", "result": 99, "unit": "%"}, {"measurement": "Dissolved at 30 min (%)", "setting": "[2]; [10]", "result": 100, "unit": "%"}]}
